Data taken from US10548861B2 (Academia Sinica, priority 2015, dated 2020).
Read-outs that look alike come from different tables or passages of the source.

Columns and labels:
[1] = test system: MA-10-W51 CB MLL-AF9 + Flt3ITD; test: Cytotoxicity: AML HSC-derived; type: cell-based, human; conditions: growth factor dependent MA-10-W51, FIG. 9
Source text: • a) Growth factor-dependent & cell density growth dependent cell lines. Human cord blood CD34+ cells transduced with MLL-AF9 gene: MA-10, MA-18. Human bone marrow CD34+ cells transduced with MLL-AF9 gene: MA-23. Human cord blood CD34+ cells transduced with MLL-AF9 and N-ras genes: MA-9.3, MA-9.6. • b) Growth factor independent leukemic cell lines. Human MA-10 cells transduced with Flt3 ITD (W51) were adapted to in vitro proliferation without growth factors (Moore Laboratory).

[2] = test system: IMR90; test: 72 hr cytotoxicity: fetal lung myofibroblast; type: cell-based; conditions: Homo sapiens, IMR-90, 72 h
[3] = test system: FTE-hTERT; test: 72 hr cytotoxicity: Fallopian epithelium; type: cell-based; conditions: Homo sapiens
[4] = test system: HUVEC; test: 72 hr cytotoxicity: Umbilical endothelium; type: cell-based; conditions: Homo sapiens, HUVEC, 72 h
[5] = test system: normal human, murine or primate cell and tissue types; test: MTT / alamar blue cytotoxicity on panel of normal tissues; type: cell-based; conditions: read-out: IC50 range
[6] = test system: Cord Blood CFC (CFU-GM, BFU-E, CFU-C); test: cells; type: cell-based; conditions: Homo sapiens
[7] = test system: BCI-NSI hTERT; test: 72 hr cytotoxicity: Bronchial epithelium; type: cell-based; conditions: Homo sapiens
[8] = test system: normal cord blood CD34+ cells; test: Cytotoxicity on normal cord blood CD34+ cells; type: cell-based; conditions: Homo sapiens
[9] = test system: BEAS2B SV40; test: cells; type: cell-based; conditions: Homo sapiens, BEAS-2B, 72 h
[10] = test system: 16HBE SV40+; test: cells; type: cell-based; conditions: Homo sapiens, 72 h
[11] = test system: MCL line JEKO-1 vs normal human tissues; type: cell-based
[12] = test system: MRC5; test: cells; type: cell-based; conditions: Homo sapiens, MRC5, 72 h
[13] = test system: MS-5 (mouse); test: 72 hr cytotoxicity: Adult BM stroma; type: cell-based; conditions: MS-5 murine stroma
[14] = test system: BMEC-hTert; test: cells; type: cell-based; conditions: Homo sapiens, 72 h
[15] = test system: HS578; test: 72 hr cytotoxicity: Breast epithelium; type: cell-based; conditions: Homo sapiens, Hs578, 72 h
[16] = test system: primary B-ALL vs normal human tissues; type: cell-based
[17] = test system: H526 variant SCLC cell line vs normal human tissues; type: cell-based
[18] = test system: MV4;11 AML cell line vs normal human tissues; type: cell-based
[19] = test system: primary AML (AML-2) vs normal human tissues; type: cell-based
[20] = test system: H69; test: 72 hr cytotoxicity: SCLC classic; type: cell-based; conditions: Homo sapiens, NCI-H69
[21] = test system: H209; test: 72 hr cytotoxicity: SCLC classic; type: cell-based; conditions: Homo sapiens, NCI-H209
[22] = test system: H719; test: 72 hr cytotoxicity: SCLC classic; type: cell-based; conditions: Homo sapiens
[23] = test system: H841; test: 72 hr cytotoxicity: SCLC variant; type: cell-based; conditions: Homo sapiens, NCI-H841
[24] = test system: BMMSC; test: 72 hr cytotoxicity: BM Mesenchyme; type: cell-based; conditions: Homo sapiens
[25] = test system: H187; test: 72 hr cytotoxicity: SCLC classic; type: cell-based; conditions: Homo sapiens, NCI-H187
[26] = test system: H678; test: 72 hr cytotoxicity: SCLC classic; type: cell-based; conditions: Homo sapiens
[27] = test system: H82; test: 72 hr cytotoxicity: SCLC variant; type: cell-based; conditions: Homo sapiens, NCI-H82
[28] = test system: H417; test: 72 hr cytotoxicity: SCLC variant; type: cell-based; conditions: Homo sapiens, NCI-H417
[29] = test system: H562; test: 72 hr cytotoxicity: SCLC classic; type: cell-based; conditions: Homo sapiens
[30] = test system: H146; test: 72 hr cytotoxicity: SCLC classic; type: cell-based; conditions: Homo sapiens, NCI-H146
[31] = test system: H524; test: 72 hr cytotoxicity: SCLC variant; type: cell-based; conditions: Homo sapiens, NCI-H524
[32] = test system: H526; test: 72 hr cytotoxicity: SCLC variant; type: cell-based; conditions: Homo sapiens, NCI-H526
[33] = test system: H889; test: 72 hr cytotoxicity: SCLC classic; type: cell-based; conditions: Homo sapiens, NCI-H889
[34] = test system: H249; test: 72 hr cytotoxicity: SCLC classic; type: cell-based; conditions: Homo sapiens
[35] = test system: H60; test: 72 hr cytotoxicity: SCLC classic; type: cell-based; conditions: Homo sapiens
[36] = test system: REC-1; test: Cytotoxicity: Mantle Cell Lymphoma; conditions: Homo sapiens, Rec1
[37] = test system: HBL2; test: Cytotoxicity: Mantle Cell Lymphoma; conditions: Homo sapiens, HBL2
[38] = test system: H211; test: 72 hr cytotoxicity: SCLC variant; type: cell-based; conditions: Homo sapiens, NCI-H211; read-out: IC50
[39] = test system: H128; test: 72 hr cytotoxicity: SCLC classic; type: cell-based; conditions: Homo sapiens, NCI-H128; read-out: IC50
[40] = test system: Ewing's sarcoma primary patient tumor; test: Cyclophosphamide-resistant primary Ewing's sarcoma xenograft; type: in vivo, NSG mice; conditions: cyclophosphamide 70 mg/kg i.p. x3, then BO-1055 30 mg/kg iv x4
[41] = test system: JEKO-1; test: Drug combination cytotoxicity with BO-1055; type: cell-based; conditions: Homo sapiens, JeKo-1, 72 h, read-out: IC50 single drug
[42] = test system: NECB1; test: Drug combination cytotoxicity with BO-1055; type: cell-based, human
[43] = test system: Z-138; test: Drug combination cytotoxicity with BO-1055; type: cell-based, human
[44] = test system: Mino; test: Drug combination cytotoxicity with BO-1055; type: cell-based, human
[45] = test system: HBL2; test: Drug combination cytotoxicity with BO-1055; type: cell-based; conditions: Homo sapiens, HBL2, 72 h, read-out: IC50 single drug
[46] = test system: REC-1; test: Drug combination cytotoxicity with BO-1055; type: cell-based, human
[47] = test system: Granta; test: Drug combination cytotoxicity with BO-1055; type: cell-based, human
[48] = Homo sapiens, 72 h, read-out: IC50 single drug

CCc1c(CO)c(CO)c2n1Cc1c(c3ccccc3n1C)C2 [BO-1978]
cytotoxicity (in words) [1]: highly cytotoxic, with BO-1978 more so than BO-1055

Cn1c(CCCC(=O)O)nc2cc(N(CCCl)CCCl)ccc21 [Bendamustine]
IC50 [2]: 32300 nM | IC50 ([3]; 72 h): 400000 nM | IC50 [4]: 140000 nM | IC50 [5]: 20000 to 400000 nM | IC50 [6]: 10000 nM | IC50 ([7]; 72 h): 85000 nM | IC50 ([8]; 72 h): 10000 nM | IC50 [9]: > 10000 nM | IC50 [10]: 3550 nM | TW [11]: 1.60-6.36 fold | IC50 [12]: > 20000 nM | IC50 [13]: 2240 nM | IC50 [14]: 300000 nM | IC50 [15]: > 100000 nM

N.N.[Cl][Pt][Cl] [Cisplatin]
IC50 [5]: 3600 to 4100 nM | Therapeutic window ([16]; Bci- (NSI) relative to B-ALL): 0.50 | Therapeutic window ([16]; CD34+ relative to B-ALL): 0.10 | Therapeutic window ([16]; FTEC relative to B-ALL): 20.00 | Therapeutic window ([16]; HUVEC relative to B-ALL): 0.83 | Therapeutic window ([16]; huMSC relative to B-ALL): 0.33 | therapeutic window (TW) ([17]; Bci- (NSI), normalized to 1.00 for H526): 83.33 | therapeutic window (TW) ([17]; CD34+, normalized to 1.00 for H526): 33.33 | therapeutic window (TW) ([17]; FTEC, normalized to 1.00 for H526): 1041.7 | therapeutic window (TW) ([17]; H526 (reference)): 1.00 | therapeutic window (TW) ([17]; HUVEC, normalized to 1.00 for H526): 58.33 | therapeutic window (TW) ([17]; huMSC, normalized to 1.00 for H526): 75.00 | Therapeutic window ([18]; CD34+ relative to MV4;11): 0.75 | Therapeutic window ([18]; HUVEC relative to MV4;11): 6.25 | Therapeutic window ([18]; NSI (Bci-NSI) relative to MV4;11): 3.75 | Therapeutic window ([18]; huMSC relative to MV4;11): 2.50 | Therapeutic window ([19]; Bci- (NSI) relative to AML-2): 0.50 | Therapeutic window ([19]; CD34+ relative to AML-2): 0.10 | Therapeutic window ([19]; FTEC relative to AML-2): 1.67 | Therapeutic window ([19]; HUVEC relative to AML-2): 0.83 | Therapeutic window ([19]; huMSC relative to AML-2): 0.33

COc1cc([C@@H]2c3cc4c(cc3[C@@H](O[C@@H]3O[C@@H]5CO[C@@H](C)O[C@H]5[C@H](O)[C@H]3O)[C@H]3COC(=O)[C@H]23)OCO4)cc(OC)c1O [Etoposide]
IC50 [20]: 400 nM | IC50 [21]: 500 nM | IC50 [22]: ≥ 10000 nM | IC50 ([3]; 72 h): 200000 nM | IC50 [23]: 600 nM | IC50 ([24]; 72 h): 70200 nM | IC50 [25]: 600 nM | IC50 ([7]; 72 h): 500 nM | IC50 [26]: 310 nM | IC50 [27]: 9700 nM | IC50 ([8]; 72 h): 90 nM | IC50 [28]: 3700 nM | IC50 [29]: 5500 nM | IC50 [30]: 2900 nM | IC50 [31]: 1400 nM | IC50 [32]: 800 nM | IC50 [33]: 1400 nM | IC50 [34]: 4100 nM | IC50 [35]: ≥ 20000 nM

CC(=O)O[C@H]1C(=O)[C@@]2(C)[C@H]([C@H](OC(=O)c3ccccc3)[C@]3(O)C[C@H](OC(=O)[C@H](O)[C@@H](NC(=O)c4ccccc4)c4ccccc4)C(C)=C1C3(C)C)[C@]1(OC(C)=O)CO[C@@H]1C[C@@H]2O [Paclitaxel]
IC50 [36]: 21 nM | IC50 [37]: 16 nM

Cc1[nH]c2ccccc2c1CCNCc1ccc(/C=C/C(=O)NO)cc1 [Panobinostat]
IC50 [36]: 60 nM | IC50 [37]: 13 nM

CC[C@]1(O)C[C@H]2CN(CCc3c([nH]c4ccccc34)[C@@](C(=O)OC)(c3cc4c(cc3OC)N(C=O)[C@H]3[C@@](O)(C(=O)OC)[C@H](OC(C)=O)[C@]5(CC)C=CCN6CC[C@]43[C@@H]65)C2)C1 [Vincristine]
IC50 ([20]; read-out: IC50): 3 nM | IC50 ([21]; read-out: IC50): 1 nM | IC50 ([22]; H719, read-out: IC50): 2 nM | IC50 ([3]; FTEC Fallopian tube epithelium, 72 hr, read-out: IC50): 250000 nM | IC50 ([23]; read-out: IC50): 2 nM | IC50 ([24]; HuMSC bone marrow mesenchymal stem cells, 72 hr, read-out: IC50): 6300 nM | IC50 [38]: 2 nM | IC50 ([25]; read-out: IC50): 1 nM | IC50 [39]: 5 nM | IC50 ([7]; Bci-NSI hTERT immortalized lung bronchus epithelium, 72 hr, read-out: IC50): 200000 nM | IC50 ([26]; H678, read-out: IC50): 2 nM | IC50 ([27]; read-out: IC50): 7 nM | IC50 ([8]; CD34 (cord blood hematopoietic progenitors), 72 hr, read-out: IC50): 2340 nM | IC50 ([28]; read-out: IC50): 2 nM | IC50 ([29]; H562, read-out: IC50): 1 nM | IC50 ([30]; read-out: IC50): 2900 nM | Therapeutic window [18]: 1.00 | IC50 ([31]; read-out: IC50): 1 nM | IC50 ([32]; read-out: IC50): 136 nM | IC50 ([33]; read-out: IC50): 1 nM | IC50 ([34]; H249, read-out: IC50): 1 nM | IC50 ([35]; H60, read-out: IC50): 2 nM

O=P1(N(CCCl)CCCl)NCCCO1 (stereo not shown) [cyclophosphamide]
tumor response [40]: Tumor growth was not inhibited

CC(C)C[C@H](NC(=O)[C@H](Cc1ccccc1)NC(=O)c1cnccn1)B(O)O [velcade, Bortezomib]
IC50 [41]: 15 nM | interaction with BO-1055 (combo-1, combo-2) [42]: synergistic with combo-1 and antagonistic with combo-2 | IC50 [42, 48]: 137 nM | interaction with BO-1055 (combo-1, combo-2) [43]: synergistic cytotoxic with both combinations | IC50 ([43]; Homo sapiens, Z-138, 72 h, read-out: IC50 single drug): 8 nM | interaction with BO-1055 (combo-1, combo-2) [44]: synergistic cytotoxic with both combinations | IC50 ([44]; Homo sapiens, MINO, 72 h, read-out: IC50 single drug): 40 nM | IC50 [45]: 5 nM | interaction with BO-1055 (combo-1, combo-2) [46]: antagonistic in both combinations | IC50 ([46]; Homo sapiens, Rec1, 72 h, read-out: IC50 single drug): 8 nM | interaction with BO-1055 (combo-1, combo-2) [47]: synergistic with combo-1 and antagonistic with combo-2 | IC50 [47, 48]: 8 nM
